# Assay results reported in patent publication EP0816362A1, “THIAZOLE DERIVATIVES” (TAISHO PHARMACEUTICAL CO. LTD, priority 1995, dated 1996).
# Target: T1, human D4.2 receptor (Homo sapiens, UniProt P21917, DEL265-296)
# T1 sequence (P21917 with tags, fused parts or gaps DEL265-296): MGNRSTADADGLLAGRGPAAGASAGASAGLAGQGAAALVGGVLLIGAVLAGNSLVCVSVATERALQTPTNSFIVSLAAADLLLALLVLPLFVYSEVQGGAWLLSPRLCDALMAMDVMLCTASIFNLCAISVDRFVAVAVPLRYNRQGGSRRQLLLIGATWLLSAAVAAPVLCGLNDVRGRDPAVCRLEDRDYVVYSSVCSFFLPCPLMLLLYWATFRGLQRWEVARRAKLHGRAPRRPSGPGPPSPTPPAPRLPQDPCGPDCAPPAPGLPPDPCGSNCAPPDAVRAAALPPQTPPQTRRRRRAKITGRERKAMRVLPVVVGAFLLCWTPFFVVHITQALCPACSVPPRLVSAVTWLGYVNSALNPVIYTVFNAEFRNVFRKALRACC
# Assay: Dopamine D4 receptor binding experiment ([3H]-spiperone)
# Settings: CHO cell membranes expressing human D4.2 receptor, [3H]-spiperone (0.5 nM), 27°C, 2 hours
# Procedure: As a receptor preparation, Chinese hamster ovary (CHO) cell membranes where human D4.2 receptor was expressed were used.
# As [^3H]-labeled ligand, [^3H]-spiperone was used.
# Human D4.2 receptor binding test: CHO cell membranes where human D4.2 receptor was expressed, [^3H]-spiperone (0.5 nM) and a test drug were reacted at 27°C for 2 hours in 50 mM Tris-HCl buffer, pH 7.4 containing 5 mM EDTA, 1.5 mM calcium chloride, 5 mM potassium chloride and 120 mM sodium chloride.
# After the reaction, the sample was filtered under suction through a glass filter (GF/B), and the radioactivity of the filter paper was determined in a liquid scintillation spectrometer.
# The binding of [^3H]-spiperone in the presence of 10 µM haloperidol was assumed to be non-specific binding, and the difference between the total binding and the non-specific binding was assumed to be specific binding.
row,Compound,IC50
1,Nc1nc(-c2ccc(F)cc2)c(C2CCN(CCCC(c3ccc(F)cc3)c3ccc(F)cc3)C2)s1 (racemic) [Compound B-19],55.9 nM
2,Nc1nc(-c2ccc(F)cc2)c(C2CCN(CCC=C(c3ccc(F)cc3)c3ccc(F)cc3)C2)s1 (racemic) [Compound C-03],29.2 nM
3,Nc1nc(-c2ccc(F)cc2)c(C2CCN(CCCC(=O)c3ccccc3)C2)s1 (racemic) [Compound D-06],38.5 nM
4,Nc1nc(-c2cccc(F)c2)c(C2CCN(CCCC(=O)c3ccc(F)cc3)C2)s1 (racemic) [Compound D-09],32 nM
5,CNc1nc(-c2ccc(F)cc2)c(C2CCN(CCCC(=O)c3ccc(F)cc3)C2)s1 (racemic) [Compound D-13],12.6 nM
6,Cc1nc(-c2ccc(F)cc2)c(C2CCN(CCCC(=O)c3ccc(F)cc3)C2)s1 (racemic) [Compound D-15],4.13 nM
7,"Nc1nc(-c2ccc(F)cc2)c(C2CCN(CCCc3noc4cc(F)ccc34)C2)s1 (single isomer, unassigned) [Compound F-07]",11.8 nM
8,"Nc1nc(-c2ccc(F)cc2)c(C2CCN(CCCC(=O)c3ccc(F)cc3)C2)s1 (single isomer, unassigned; (+)) [Compound F-05, (+)-2-amino-4-(4-fluorophenyl)-5-[1-[4-(4-fluorophenyl)-4-oxobutyl]pyrrolidin-3-yl]thiazole]",6.58 nM
9,Nc1nc(-c2ccc(F)cc2)c(C2CCN(CCC=Cc3ccc(F)cc3)C2)s1 (centres unmarked) [Compound C-02],81.1 nM
10,"Nc1nc(-c2ccc(F)cc2)c(C2CCN(CCCC(=O)c3ccc(F)cc3)C2)s1 [Compound D-02, 2-amino-4-(4-fluorophenyl)-5-[1-[4-(4-fluorophenyl)-4-oxobutyl]pyrrolidin-3-yl]thiazole]",6.58 nM
11,"Nc1nc(-c2ccc(F)cc2)c(C2CCN(CCCc3noc4cc(F)ccc34)C2)s1 (centres unmarked) [Compound E-02, 2-amino-4-(4-fluorophenyl)-5-[1-[3-(6-fluoro-1,2-benzisoxazol-3-yl)propyl]pyrrolidin-3-yl]thiazole]",10.5 nM
12,Nc1nc(-c2ccc(F)cc2)c(C2CCN(CCCCc3noc4cc(F)ccc34)C2)s1 (centres unmarked) [Compound E-06],97.7 nM
13,Nc1nc(-c2ccc(F)cc2)c(C2CCN(CCCc3nsc4ccccc34)C2)s1 (centres unmarked) [Compound E-10],13.9 nM
14,"Nc1nc(-c2ccc(F)cc2)c(C2CCN(CCCc3nsc4cc(F)ccc34)C2)s1 (centres unmarked) [Compound E-11, 2-amino-4-(4-fluorophenyl)-5-[1-[3-(6-fluoro-1,2-benzisothiazol-3-yl)propyl]pyrrolidin-3-yl]thiazole]",7.22 nM
15,Nc1nc(-c2ccc(F)cc2)c(C2CCN(CCCN3C(=O)CCc4ccccc43)C2)s1 (centres unmarked) [Compound H-02],81.1 nM
16,Nc1nc(-c2ccc(F)cc2)c(C2CCN(CCCn3c(=O)ccc4cc(F)ccc43)C2)s1 (centres unmarked) [Compound H-03],61.4 nM
17,Nc1nc(-c2ccc(F)cc2)c(C2CCN(CCCN3C(=O)CCc4cc(F)ccc43)C2)s1 (centres unmarked) [Compound H-04],46.4 nM
18,Nc1nc(-c2ccc(F)cc2)c(C2CCN(CCCN3C(=O)Cc4ccccc43)C2)s1 (centres unmarked) [Compound H-07],89 nM
19,Nc1nc(-c2ccc(F)cc2)c(C2CCN(CCCN3C(=O)Cc4cc(F)ccc43)C2)s1 (centres unmarked) [Compound H-08],46.4 nM
20,"Nc1nc(-c2ccc(F)cc2)c(CCN2CCC(C(=O)c3ccc(F)cc3)CC2)s1 [Compound K-01, 2-amino-4-(4-fluorophenyl)-5-[2-[4-(4-fluorobenzoyl)piperidin-1-yl]ethyl]thiazole]",7.92 nM

row,Compound,IC50
1,Nc1nc(-c2ccc(F)cc2)c(CCN2CCC(Cc3ccccc3)CC2)s1 [Compound K-04],46.4 nM
2,Nc1nc(-c2ccc(F)cc2)c(CCN2CCC(C(=O)c3ccc(Cl)cc3)CC2)s1 [Compound K-08],29.2 nM
3,Nc1nc(-c2ccc(F)cc2)c(CCN2CCC(C(=O)c3ccccc3)CC2)s1 [Compound K-09],42.3 nM
4,Nc1nc(-c2ccccc2)c(CCN2CCC(C(=O)c3ccc(F)cc3)CC2)s1 [Compound K-10],8.7 nM
5,Nc1nc(-c2ccc(F)cc2)c(CCN2CCC(C(=O)c3ccc(Br)cc3)CC2)s1 [Compound K-15],35.1 nM
6,Cc1ccc(C(=O)C2CCN(CCc3sc(N)nc3-c3ccc(F)cc3)CC2)cc1 [Compound K-16],9.55 nM
7,C=C(c1ccc(F)cc1)C1CCN(CCc2sc(N)nc2-c2ccc(F)cc2)CC1 [Compound K-18],20.1 nM
8,Cc1nc(-c2ccc(F)cc2)c(CCN2CCC(C(=O)c3ccc(F)cc3)CC2)s1 [Compound K-19],8.7 nM
9,Cc1nc(-c2ccc(F)cc2)c(CCN2CCC(C(=O)c3ccc(Cl)cc3)CC2)s1 [Compound K-20],5.46 nM
10,Cc1nc(-c2ccc(F)cc2)c(CCN2CCC(C(=O)c3ccc(Br)cc3)CC2)s1 [Compound K-21],11.5 nM
11,COc1ccc(C(=O)C2CCN(CCc3sc(C)nc3-c3ccc(F)cc3)CC2)cc1 [Compound K-22],38.5 nM
12,Cc1nc(-c2ccc(F)cc2)c(CCN2CCC(C(=O)c3ccc(F)cc3F)CC2)s1 [Compound K-23],11.5 nM
13,Cc1nc(-c2ccc(F)cc2)c(CCN2CCC(C(=O)c3ccccc3)CC2)s1 [Compound K-24],5.99 nM
14,Cc1ccc(C(=O)C2CCN(CCc3sc(C)nc3-c3ccc(F)cc3)CC2)cc1 [Compound K-25],5.46 nM
15,Cc1nc(-c2ccc(Cl)cc2)c(CCN2CCC(C(=O)c3ccc(F)cc3)CC2)s1 [Compound K-26],4.53 nM
16,Cc1nc(-c2ccc(Br)cc2)c(CCN2CCC(C(=O)c3ccc(F)cc3)CC2)s1 [Compound K-27],4.98 nM
17,COc1ccc(-c2nc(C)sc2CCN2CCC(C(=O)c3ccc(F)cc3)CC2)cc1 [Compound K-28],1.63 nM
18,Cc1ccc(-c2nc(C)sc2CCN2CCC(C(=O)c3ccc(F)cc3)CC2)cc1 [Compound K-29],2.36 nM
19,Cc1nc(-c2ccccc2)c(CCN2CCC(C(=O)c3ccc(F)cc3)CC2)s1 [Compound K-30],2.15 nM

# Same assay, conditions: inhibition of [3H]-spiperone binding, human D4.2 receptor
row,Compound,IC50
1,COc1ccc(-c2nc(C)sc2CCN2CCC(C(=O)c3ccc(F)cc3)CC2)cc1Br [Compound K-31],0.705 nM
2,C=C(c1ccc(F)cc1)C1CCN(CCc2sc(C)nc2-c2ccc(F)cc2)CC1 [Compound K-32],12.6 nM
3,O=C(c1ccc(F)cc1)C1CCN(CCc2scnc2-c2ccc(F)cc2)CC1 [Compound K-33],2.36 nM
4,O=C(c1ccccc1)C1CCN(CCc2scnc2-c2ccc(F)cc2)CC1 [Compound K-34],20.1 nM
5,O=C(c1ccc(F)cc1)C1CCN(CCc2sc(-c3ccccc3)nc2-c2ccc(F)cc2)CC1 [Compound K-35],32 nM
6,CNc1nc(-c2ccc(F)cc2)c(CCN2CCC(C(=O)c3ccc(F)cc3)CC2)s1 [Compound K-36],3.43 nM
7,Nc1nc(-c2ccc(F)cc2)c(CCN2CCC(CC(=O)c3ccc(F)cc3)C2)s1 (centres unmarked) [Compound K-37],10.5 nM
8,Nc1nc(-c2ccc(F)cc2)c(CCN2CCC(=Cc3ccc(F)cc3)CC2)s1 [Compound L-01],2.85 nM
9,Nc1nc(-c2ccc(F)cc2)c(CCCN2CCC(=Cc3ccc(F)cc3)CC2)s1 [Compound L-02],38.5 nM
10,Nc1nc(-c2ccc(Cl)cc2)c(CCN2CCC(=Cc3ccc(F)cc3)CC2)s1 [Compound L-03],22.1 nM
11,Nc1nc(-c2ccc(Br)cc2)c(CCN2CCC(=Cc3ccc(F)cc3)CC2)s1 [Compound L-04],13.9 nM
12,COc1ccc(-c2nc(N)sc2CCN2CCC(=Cc3ccc(F)cc3)CC2)cc1 [Compound L-05],18.3 nM
13,Cc1ccc(-c2nc(N)sc2CCN2CCC(=Cc3ccc(F)cc3)CC2)cc1 [Compound L-06],4.13 nM
14,Nc1nc(-c2ccccc2)c(CCN2CCC(=Cc3ccc(F)cc3)CC2)s1 [Compound L-07],22.1 nM
15,Nc1nc(-c2ccc(F)cc2)c(CCN2CCC(=Cc3ccc(Cl)cc3)CC2)s1 [Compound L-08],73.9 nM
16,COc1ccc(C=C2CCN(CCc3sc(N)nc3-c3ccc(F)cc3)CC2)cc1 [Compound L-10],29.2 nM
17,Nc1nc(-c2ccc(F)cc2)c(CCN2CCC(=Cc3cccc(F)c3)CC2)s1 [Compound L-11],2.85 nM
18,Nc1nc(-c2ccc(F)cc2)c(CCN2CCC(=Cc3ccccc3F)CC2)s1 [Compound L-12],2.36 nM
19,Nc1nc(-c2ccc(F)cc2)c(CCN2CCC(=Cc3cccc(C(F)(F)F)c3)CC2)s1 [Compound L-13],24.2 nM
20,Nc1nc(-c2ccc(F)cc2)c(CCN2CCC(=Cc3ccccc3)CC2)s1 [Compound L-14],3.76 nM
21,CC(=C1CCN(CCc2sc(N)nc2-c2ccc(F)cc2)CC1)c1ccc(F)cc1 [Compound L-15],7.92 nM
22,Cc1nc(-c2ccc(F)cc2)c(CCN2CCC(=Cc3ccc(F)cc3)CC2)s1 [Compound L-17],12.6 nM
23,Cc1nc(-c2ccc(Cl)cc2)c(CCN2CCC(=Cc3ccc(F)cc3)CC2)s1 [Compound L-18],9.55 nM
24,Cc1nc(-c2ccc(Br)cc2)c(CCN2CCC(=Cc3ccc(F)cc3)CC2)s1 [Compound L-19],16.7 nM
25,COc1ccc(-c2nc(C)sc2CCN2CCC(=Cc3ccc(F)cc3)CC2)cc1 [Compound L-20],7.22 nM
26,Cc1ccc(-c2nc(C)sc2CCN2CCC(=Cc3ccc(F)cc3)CC2)cc1 [Compound L-21],2.6 nM
